In the experiment the test system is BDF1 mice, P388 leukemia ip, median survival T/C. Briefly: NCI In Vivo Anticancer Drug Screen. Data for tumor model P388 Leukemia (intraperitoneal) in B6D2F1 (BDF1) mice. To be noted: endpoint: median survival time, higher = longer survival. A digest of the protocol:
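In tumour-bearing mice, survival after compound treatment is set against the vehicle group and given as a quotient.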

The mark [1] stands for this setting: dose: 100.0 mg/kg/injection, schedule: Q01DX001 (ip), vehicle: saline.
The mark [2] stands for this setting: dose: 200.0 mg/kg/injection, schedule: Q01DX001 (ip), vehicle: saline.
Setting [3] is: dose: 50.0 mg/kg/injection, schedule: Q01DX009 (ip), vehicle: saline.
Setting [4] is: dose: 100.0 mg/kg/injection, schedule: Q04DX003 (ip), vehicle: saline with Tween-80.
Setting [5] is: dose: 50.0 mg/kg/injection, schedule: Q01DX009 (ip), vehicle: Klucel (hydroxypropylcellulose) (HPC).
Setting [6] is: dose: 100.0 mg/kg/injection, schedule: Q01DX009 (ip), vehicle: Klucel (hydroxypropylcellulose) (HPC).
Where [7] appears, read: dose: 200.0 mg/kg/injection, schedule: Q01DX009 (ip), vehicle: Klucel (hydroxypropylcellulose) (HPC).
Setting [8] is: dose: 400.0 mg/kg/injection, schedule: Q01DX009 (ip), vehicle: Klucel (hydroxypropylcellulose) (HPC).
The mark [9] stands for this setting: dose: 100.0 mg/kg/injection, schedule: Q04DX003 (ip), vehicle: saline sonified.
Where [10] appears, read: dose: 200.0 mg/kg/injection, schedule: Q04DX003 (ip), vehicle: saline sonified.
The mark [11] stands for this setting: dose: 200.0 mg/kg/injection, schedule: Q04DX003 (ip), vehicle: saline with Tween-80.
[12] abbreviates: dose: 12.5 mg/kg/injection, schedule: Q01DX010 (ip), vehicle: saline.
Where [13] appears, read: dose: 25.0 mg/kg/injection, schedule: Q01DX010 (ip), vehicle: saline.
Where [14] appears, read: dose: 25.0 mg/kg/injection, schedule: Q01DX009 (ip), vehicle: saline with Tween-80.
Where [15] appears, read: dose: 50.0 mg/kg/injection, schedule: Q01DX009 (ip), vehicle: saline with Tween-80.
Where [16] appears, read: dose: 50.0 mg/kg/injection, schedule: Q04DX003 (ip), vehicle: saline with Tween-80.
[17] abbreviates: dose: 50.0 mg/kg/injection, schedule: Q04DX003 (ip), vehicle: saline sonified.
Setting [18] is: dose: 100.0 mg/kg/injection, schedule: Q04DX003 (ip), vehicle: Klucel (hydroxypropylcellulose) (HPC).
Where [19] appears, read: dose: 200.0 mg/kg/injection, schedule: Q04DX003 (ip), vehicle: Klucel (hydroxypropylcellulose) (HPC).
Where [20] appears, read: dose: 6.25 mg/kg/injection, schedule: Q01DX009 (ip), vehicle: saline with Tween-80.
[21] abbreviates: dose: 12.5 mg/kg/injection, schedule: Q01DX009 (ip), vehicle: saline with Tween-80.

Structures are written as SMILES. Inconclusive results and toxic doses are left out.

`COc1cc(/C=C/C(=O)O)ccc1OC(C)=O`: the T/C is 100 % of control under setting [1]; 100 % of control under setting [2]; 100 % of control (dose: 400.0 mg/kg/injection, schedule: Q01DX001 (ip), vehicle: saline).

As to `CCCCCCOP(=O)(N1CC1)N1CC1`, the T/C was 123 % of control (dose: 25.0 mg/kg/injection, schedule: Q01DX009 (ip), vehicle: saline); 90 % of control under setting [3]; 113 % of control under setting [4].

In the case of `CC(=O)/C=C\c1ccc(Cl)cc1`, the T/C runs as follows: under setting [5], 100 % of control; under setting [6], 111 % of control; under setting [7], 109 % of control; under setting [8], 111 % of control.

With `Nc1nnc(N)s1`, the T/C is 100 % of control under setting [9]; 100 % of control under setting [10]; 100 % of control (dose: 400.0 mg/kg/injection, schedule: Q04DX003 (ip), vehicle: saline sonified).

As to `Cc1ccc(Oc2ccc3cc[n+](C)cc3c2)cc1`, the T/C was 94 % of control (dose: 2.75 mg/kg/injection, schedule: Q01DX009 (ip), vehicle: saline); 105 % of control (dose: 4.12 mg/kg/injection, schedule: Q01DX009 (ip), vehicle: saline); 99 % of control (dose: 9.5 mg/kg/injection, schedule: Q01DX009 (ip), vehicle: saline); 118 % of control (dose: 12.5 mg/kg/injection, schedule: Q01DX009 (ip), vehicle: saline).

As to `C[C@]12CC[C@@H]3c4ccccc4CC[C@H]3[C@@H]1CC[C@@H]2O`, the T/C by setting is: under setting [4], 90 % of control; under setting [11], 90 % of control; (dose: 400.0 mg/kg/injection, schedule: Q04DX003 (ip), vehicle: saline with Tween-80) 100 % of control.

Take `COc1cc([C@@H]2c3cc4c(c(OC)c3C[C@H]3COC(=O)[C@@H]32)OCO4)cc(OC)c1OC`: the T/C reads like this: (dose: 12.5 mg/kg/injection, schedule: Q01DX001 (ip), vehicle: other) 105 % of control; under setting [12], 172 % of control; (dose: 25.0 mg/kg/injection, schedule: Q01DX001 (ip), vehicle: saline) 100 % of control; under setting [13], 104 % of control; (dose: 50.0 mg/kg/injection, schedule: Q01DX001 (ip), vehicle: saline) 113 % of control; (dose: 50.0 mg/kg/injection, schedule: Q01DX010 (ip), vehicle: other) 90 % of control. In addition, the T/C under setting [1] is 113 % of control and the T/C under setting [2] was 118 % of control.

As to `C#CC1(O)CC[C@H]2[C@@H]3CCC4=CCCC[C@@H]4[C@H]3CC[C@@]21C` (stereo partly drawn), the T/C (dose: 100.0 mg/kg/injection, schedule: Q01DX009 (ip), vehicle: saline) is 95 % of control; the T/C (dose: 100.0 mg/kg/injection, schedule: Q04DX003 (ip), vehicle: alcohol) was 100 % of control; the T/C (dose: 200.0 mg/kg/injection, schedule: Q01DX009 (ip), vehicle: saline) is 90 % of control; the T/C (dose: 200.0 mg/kg/injection, schedule: Q04DX003 (ip), vehicle: alcohol) was 95 % of control; the T/C (dose: 400.0 mg/kg/injection, schedule: Q01DX009 (ip), vehicle: saline) is 86 % of control; the T/C (dose: 400.0 mg/kg/injection, schedule: Q04DX003 (ip), vehicle: alcohol) was 105 % of control.

Regarding `BrCCCC[P+](c1ccccc1)(c1ccccc1)c1ccccc1`, the T/C is, setting by setting: (dose: 6.25 mg/kg/injection, schedule: Q01DX010 (ip), vehicle: saline) 113 % of control; under setting [12], 118 % of control.

Consider `c1ccc(C2OC3(CCCCC3)C[N+]23CCCC3)cc1` (stereo not drawn), for which the T/C under setting [14] is 95 % of control, the T/C under setting [15] was 113 % of control, the T/C under setting [16] is 100 % of control and the T/C under setting [4] was 87 % of control.

As for `CC1OC(OC2CC(O)(C(=O)CO)Cc3c(O)c4c(c(O)c32)C(=O)c2ccccc2C4=O)CC(N)C1O` (stereo not drawn), the T/C is 155 % of control (dose: 216.0 micrograms/kg/injection, schedule: Q04DX003 (ip), vehicle: water); 163 % of control (dose: 360.0 micrograms/kg/injection, schedule: Q04DX003 (ip), vehicle: water); 166 % of control (dose: 600.0 micrograms/kg/injection, schedule: Q04DX003 (ip), vehicle: water).

Take `COc1ccc(C(=S)N(C)NC(=O)CC(=O)NN(C)C(=S)c2ccc(OC)cc2)cc1`: the T/C (dose: 25.0 mg/kg/injection, schedule: Q01DX009 (ip), vehicle: Klucel (hydroxypropylcellulose) (HPC)) is 100 % of control; the T/C under setting [5] is 102 % of control; the T/C under setting [6] was 89 % of control; the T/C under setting [7] is 100 % of control.

In the case of `NC(=O)c1c(Br)n(C2OC(CO)C(O)C2O)c2ncnc(N)c12` (stereo not drawn), under setting [3], the T/C was 95 % of control.

For the molecule `Nc1nc(CNc2ccccc2)nc(Nc2ccccc2)n1`, the T/C is, setting by setting: under setting [17], 100 % of control; under setting [9], 100 % of control; under setting [10], 105 % of control.

Consider `CCCCCCCCCCSS(=O)(=O)O`, for which the T/C is 87 % of control (dose: 25.0 mg/kg/injection, schedule: Q01DX001 (ip), vehicle: other); 95 % of control (dose: 50.0 mg/kg/injection, schedule: Q01DX001 (ip), vehicle: other); 95 % of control (dose: 100.0 mg/kg/injection, schedule: Q01DX001 (ip), vehicle: other).

Turning to `O=C(NO)c1cc(O)c(O)c(O)c1`, the T/C (dose: 50.0 mg/kg/injection, schedule: Q01DX005 (ip), vehicle: distilled water + Tween-80) was 123 % of control; the T/C (dose: 200.0 mg/kg/injection, schedule: Q01DX005 (ip), vehicle: distilled water + Tween-80) was 150 % of control; the T/C (dose: 400.0 mg/kg/injection, schedule: Q01DX005 (ip), vehicle: distilled water + Tween-80) was 153 % of control.

Take `O=C(Nc1ccccc1O)/C(Cl)=C/Cl`: the T/C (dose: 22.0 mg/kg/injection, schedule: Q01DX009 (ip), vehicle: saline with Tween-80) was 122 % of control and the T/C (dose: 33.0 mg/kg/injection, schedule: Q01DX009 (ip), vehicle: saline with Tween-80) was 123 % of control.

Regarding `O=c1[nH]c(SCc2ccc([N+](=O)[O-])cc2)nc2ccccc12`, the T/C by setting is: under setting [18], 95 % of control; under setting [19], 90 % of control.

Turning to `O=C(Cc1ccccc1)OCC#CC#CCOC(=O)Cc1ccccc1`, the T/C runs as follows: under setting [6], 100 % of control; under setting [18], 90 % of control; under setting [7], 104 % of control; under setting [19], 104 % of control; under setting [8], 100 % of control; (dose: 400.0 mg/kg/injection, schedule: Q04DX003 (ip), vehicle: Klucel (hydroxypropylcellulose) (HPC)) 109 % of control.

Turning to `Cc1c(C=[N+]2CCCCC2)c2ccccc2n1C`, the T/C under setting [20] was 96 % of control, the T/C under setting [21] is 105 % of control, the T/C under setting [14] is 93 % of control and the T/C under setting [15] was 99 % of control.

Consider `O=[N+]([O-])c1ccc(N2CCN=N2)cc1`, for which the T/C under setting [13] is 104 % of control; the T/C (dose: 25.0 mg/kg/injection, schedule: Q04DX003 (ip), vehicle: saline sonified) was 100 % of control; the T/C (dose: 50.0 mg/kg/injection, schedule: Q01DX010 (ip), vehicle: saline) was 123 % of control; the T/C under setting [17] was 95 % of control; the T/C under setting [9] is 86 % of control.

For the molecule `C=CCN(CC=C)/N=N/c1nc[nH]c1C(N)=O`, the T/C is 100 % of control under setting [16], 95 % of control under setting [4] and 113 % of control under setting [11].

As to `Nc1ncnc2oc(-c3ccccc3)c(-c3ccccc3)c12`, the T/C is, setting by setting: under setting [20], 100 % of control; under setting [21], 100 % of control; under setting [14], 97 % of control; under setting [15], 92 % of control.

The record behind these values is PubChem BioAssay AID328 (DTP/NCI, 2004).
